Source: US20040039014A1, “Methods and compounds for treating depression and other disorders” (NPS Pharmaceuticals, Inc., priority 1998, published 2004)
Read-outs that look alike come from different tables or passages of the source. Marks after values point to notes of the source that are not given here.

What was measured:
NMDA receptor [1] = tested on: T1, NMDA receptor; assay: NMDA receptor assay (fura-2 cytosolic calcium in cultured rat cerebellar granule cells); format: cell-based; conditions: Table I, read-out: fura2 data IC50
T1 construct: fura2 data IC50; rat cerebellar granule cells
Description: All culture media, antibiotics, and enzymes, with the exception of fetal calf serum (Hyclone Laboratories, Logan, Utah), were purchased from Sigma Chemical Co., St. Louis, Mo. Fura-2/AM was obtained from Molecular Probes, Eugene, Oreg., and was prepared freshly in dimethylsulfoxide (DMSO) before use. Ionomycin (Calbiochem) was stored as a stock solution in DMSO. Nifedipine (Sigma) and nimodipine (RBI) were dissolved in absolute ethanol. […] All other agents were dissolved in phosphate-buffered saline (PBS), and adjusted to pH 7.4
Preparation of Rat Cerebellar Granule Cell (RCGC) Cultures
Briefly, primary cultures of cerebellar granule neurons were obtained from 8-day-old rats and plated onto squares of Aclar plastic coated with poly-L-lysine. The plastic squares were placed in 12-well culture plates, and ˜7.5×10^5 cells were added to each well. Cultures were maintained in Eagles's medium containing 25 mM KCl, 10% fetal calf serum, 2 mM glutamine, 100 μg/ml gentamicin, 50 U/ml penicillin, and 50 μg/ml streptomycin at 37° C. in a humid atmosphere of 5%CO2 in air for 24 hr before the addition of cytosine arabinoside (10 μM, final). No changes of culture medium were made until the cells were used for fluorescence recording 6-8 days after plating.
Measurement of Cytosolic Calcium
(“Ca^2+-free” buffer contained no added CaCl2 and 30 μM EGTA). The cells were then rinsed with the same buffer, lacking fura-2/AM, and maintained at room temperature until used for measurement of fluorescence, the Aclar squares were transferred into quartz cuvettes containing 2 ml of the HEPES buffer. The cuvette was then placed into a thermostatted holder equipped with a magnetic stirrer in a custom-built spectrofluorimeter (Biomedical Instrumentation Group, University of Pennsylvania, Philadelphia, Pa.). The size of the plastic Aclar square was such as to fit snugly in the cuvette when placed at a diagonal and therefore suspend itself over the spin bar. Fluorescence was measured using excitation and emission wavelengths of 340 and 510 nm, respectively. The amplitude of the evoked increase in fluorescence and subsequent inhibition were recorded and the concentration of [Ca^2+]i was calculated using the formula:
[Ca^2+]=Kd (F-Fmin)/(Fmax-F) (Eq. 1)
F=fluorescence amplitude evoked at a particular time point or concentration of compound;
Fmin=minimum fluorescence determined after the addition of a 2.5 M TRIS/0.3 M EGTA solution;
Fmax=maximum fluorescence determined following the addition of 7 mM ionomycin in DMSO; and […]

NMDA receptor [2] = target: T2, NMDA receptor; assay: [3H]MK-801 binding assay (rat cortex synaptic plasma membranes); conditions: read-out: [3H]MK-801 data IC50, Table I
T2 construct: rat cortex membranes
Description: Synaptic plasma membranes (SPMs) from rat cortex were prepared as follows. Isolated cerebral cortices from male and female rats were purchased from Pel-Freez (Rogers, Ariz.) in bulk, and stored at −80° C. The cortices from 25 rats were thawed and pooled. […] The resulting homogenates were centrifuged for 10 min at 1,000×g in a T865 rotor, UltraPro80 Sorvall Centrifuge. The supernatant was removed and subsequently centrifuged at 30,000×g for 30 min. […] Membranes were washed by re-suspension in 500 ml of 5 mM K-EDTA (pH 7.0), incubated at 32° C. for 30 min with stirring, and centrifuged at 100,000×g for 30 min. The final pellet was resuspended in 60 ml of […] K-EDTA (pH 7.0) and stored in aliquots at −80° C. The extensive washing procedure utilized in this assay was designed to minimize the concentrations of glutamate and glycine (co-agonists at the NMDA receptor-ionophore complex) present in the membrane preparation.
On the day of assay, aliquots of SPM were thawed and resuspended in 75 vols of 5 mM K-EDTA, pH 7.0. SPM were centrifuged at 100,000×g for 30 min at 4° C.
The SPM pellet was resuspended in assay buffer (30 mM EPPS, 1 mM K-EDTA, pH 7.0) by polytron. […] Binding was started by the addition of the tissue homogenate. The assay was terminated by the addition of 4 ml ice-cold buffer, followed by filtration over glass-fiber filters (Schleicher & Schuell No. 30) on a Millipore 12-well filtration manifold. Filters were washed with another 3 ×4 ml ice-cold buffer (pH 7.0). Radioactivity on the filters was measured using Fisherbrand Scinti-Safe scintillation cocktail. Samples were shaken for 45-60 min on a shaker platform to solubilize the radioactivity. Counting for ^3H was performed in a Beckman 6000IC LS Scintillation Counter for 4 min per sample.

male C57BL/6 mice = assay: Mouse tail-suspension test (TST) with Compound 60; format: in vivo
Description: For the mouse tail-suspension test with Compound 60, male pathogen-free C57BL/6 mice (Harlan Sprague-Dawley) weighing between 22-25 g were used. Animals were removed from the housing room to the testing area in their own cages and allowed to adapt to the new environment for at least 1 hour before testing. Mice were administered either drug (imipramine, 15 mg/kg i.p.; or Compound 60, various p.o. doses) or saline. Thirty minutes to 24 hours later, the mice were suspended on the edge of a shelf 80 cm above the floor in the testing room by adhesive tape placed approximately 1 cm from the tip of the tail. The duration of immobility was recorded during a test period of 5 minutes. Mice were considered immobile only when they hung passively and completely motionless. Results were expressed as the duration of immobility (sec).

male Sprague-Dawley rats = assay: Rat forced-swim test (FST); format: in vivo; conditions: Table VI; 10 mg/kg i.p., 30 minutes prior to testing; saline control 47.9
Description: (§1) For the mouse and rat forced-swim tests, male pathogen-free NIH-Swiss mice (Harlan Sprague-Dawley) weighing between 22-25 g, and male pathogen-free Sprague-Dawley rats (Harlan Sprague-Dawley) weighing between 320-350 g were used. Animals were removed from the housing room to the testing area in their own cages and allowed to adapt to the new environment for at least 1 hour before testing. Mice were administered either drug (imipramine, 10 mg/kg i.p.; or Compound 60, various p.o or i.p. doses) or saline. Thirty minutes to 24 hours later, mice were placed individually in cylinders (diameter: 10 cm; height: 25 cm) filled with 6 cm of water (22-25° C.) for 6 minutes. The duration of immobility during the last 4 minutes of the 6 minute test was scored. A mouse was recorded as immobile when floating motionless or making only those movements necessary to keep its head above water. Results were expressed as the duration of immobility (seconds).
The rat forced-swim test was conducted over two days. On treatment Day 1, rats were placed individually in cylinders (diameter: 18 cm; height: 40 cm) filled with water (22-25° C.) to a depth of 15 cm for 15 minutes. The duration of immobility during the first 5 minutes was scored. After testing, the rats were dried with paper towels and placed in holding cages. Five minutes after removal from the testing cylinders, animals received either drug (imipramine, 10 mg/kg i.p.; or Compound 60, various p.o. doses) or saline (p.o.). Ten minutes later, the rats were returned to their home cages. […] The duration of immobility during the first 5 minute period was recorded. A rat was recorded as immobile when floating motionless or making only those movements necessary to keep its head above water. […]

male NIH-Swiss mice = assay: Mouse forced-swim test (FST); format: in vivo; conditions: 10 mg/kg i.p. single dose 30 minutes prior to testing
Description: as §1

[3] = target: T3, norepinephrine transporter site (Rattus norvegicus, UniProt Q63380); assay: Norepinephrine reuptake inhibition assay ([3H]nisoxetine binding, rat forebrain membranes)
T3 construct: tissue NovaScreen (performed the assay); host or cells: rat forebrain membranes
Description: (§2) Monoamine Transporter Minding Assays
(§3) Monoamine transporter binding assays (reuptake inhibition assays) were performed by NovaScreen using standard radioligand binding assays. The transporter binding assays are described briefly below:
Norepinephrine Reuptake Inhibition Assay
Reactions were terminated by rapid vacuum filtration onto glass fiber filters.

[4] = target: T4, dopamine transporter site (Cavia porcellus, UniProt H0WCX4); assay: Dopamine reuptake inhibition assay ([3H]WIN 35428 binding, guinea pig striatal membranes)
T4 construct: tissue NovaScreen (performed the assay); host or cells: guinea pig striatal membranes
Description: as §2, §3
Dopamine Reuptake Inhibition Assay:
Reactions were terminated by rapid vacuum filtration onto glass fiber filters. Bound radioactivity was determined using liquid scintillation spectrometry and experimental values were compared to control values to determine binding to the dopamine transporter site based on Madras, et al., Molec.

[5] = target: T5, serotonin transporter site (Rattus norvegicus, UniProt P31652); assay: Serotonin reuptake inhibition assay ([3H]citalopram binding, rat forebrain membranes)
T5 construct: tissue NovaScreen (performed the assay); host or cells: rat forebrain membranes
Description: as §2, §3
Serotonin Reuptake Inhibition Assay
Rat forebrain membranes were incubated with 0.7 nM [^3H] citalopram, N-methyl, (70-87 Ci/mmol)in 50 mM Tris-HCl (pH 7.4), 120 mM NaCl, and 5 mM KCl at 25° C. for 60 minutes. […] Reactions were terminated by rapid vacuum filtration onto glass fiber filters.

male NMRI-CERJ mice = assay: Automated tail-suspension test in mice (Compound 19); format: in vivo, mouse; conditions: 16 mg/kg i.p., 30 min prior to testing; p<0.001
Description: In this test, the animal is suspended by the tail for 6 minutes. The behavior of the animal is recorded automatically using a special computerized apparatus which measures two parameters, the duration of immobility and the power of the movements. Ten animals are studied per dose group. […] This test, which is a variant of the behavioral despair test, is based on the assumption that animals faced with an insoluble aversive situation will alternate between phases of activity (searching to escape) and immobility (waiting, “despairs”).

[6] = Table I, read-out: 5-HT Uptake Ki

T3 sequence (Q63380 1-617): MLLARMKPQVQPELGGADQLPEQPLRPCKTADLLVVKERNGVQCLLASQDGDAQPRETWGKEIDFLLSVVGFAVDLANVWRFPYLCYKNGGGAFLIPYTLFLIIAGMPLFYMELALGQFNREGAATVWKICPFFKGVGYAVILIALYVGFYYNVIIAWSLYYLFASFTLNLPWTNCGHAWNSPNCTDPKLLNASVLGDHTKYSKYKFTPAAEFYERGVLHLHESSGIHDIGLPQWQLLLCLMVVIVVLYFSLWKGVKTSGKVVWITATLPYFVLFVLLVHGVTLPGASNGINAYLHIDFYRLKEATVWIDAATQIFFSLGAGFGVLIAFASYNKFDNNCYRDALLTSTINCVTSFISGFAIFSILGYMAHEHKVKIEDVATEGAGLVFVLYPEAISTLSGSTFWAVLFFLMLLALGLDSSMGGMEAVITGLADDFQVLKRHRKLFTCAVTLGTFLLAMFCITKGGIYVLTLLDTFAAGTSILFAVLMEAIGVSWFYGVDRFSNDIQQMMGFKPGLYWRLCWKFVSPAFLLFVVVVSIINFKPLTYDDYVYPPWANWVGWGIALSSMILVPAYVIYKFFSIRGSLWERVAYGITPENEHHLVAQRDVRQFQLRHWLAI
T4 sequence (H0WCX4 1-619): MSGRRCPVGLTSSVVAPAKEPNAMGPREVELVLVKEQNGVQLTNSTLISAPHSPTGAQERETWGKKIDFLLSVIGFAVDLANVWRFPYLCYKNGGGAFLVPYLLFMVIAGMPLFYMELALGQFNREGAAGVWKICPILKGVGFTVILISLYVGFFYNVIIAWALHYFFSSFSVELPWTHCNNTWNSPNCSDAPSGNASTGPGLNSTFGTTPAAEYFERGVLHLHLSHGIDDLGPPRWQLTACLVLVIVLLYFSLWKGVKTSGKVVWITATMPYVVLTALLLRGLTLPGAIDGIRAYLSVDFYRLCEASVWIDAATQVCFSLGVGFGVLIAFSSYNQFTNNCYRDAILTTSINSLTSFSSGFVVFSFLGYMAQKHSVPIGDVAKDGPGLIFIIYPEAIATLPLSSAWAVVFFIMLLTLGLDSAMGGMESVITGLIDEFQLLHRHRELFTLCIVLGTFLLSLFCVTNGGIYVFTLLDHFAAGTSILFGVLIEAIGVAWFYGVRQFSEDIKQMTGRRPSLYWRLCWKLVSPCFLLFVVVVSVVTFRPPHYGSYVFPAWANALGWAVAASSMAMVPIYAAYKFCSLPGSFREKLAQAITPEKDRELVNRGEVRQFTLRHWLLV
T5 sequence (P31652 whole entry): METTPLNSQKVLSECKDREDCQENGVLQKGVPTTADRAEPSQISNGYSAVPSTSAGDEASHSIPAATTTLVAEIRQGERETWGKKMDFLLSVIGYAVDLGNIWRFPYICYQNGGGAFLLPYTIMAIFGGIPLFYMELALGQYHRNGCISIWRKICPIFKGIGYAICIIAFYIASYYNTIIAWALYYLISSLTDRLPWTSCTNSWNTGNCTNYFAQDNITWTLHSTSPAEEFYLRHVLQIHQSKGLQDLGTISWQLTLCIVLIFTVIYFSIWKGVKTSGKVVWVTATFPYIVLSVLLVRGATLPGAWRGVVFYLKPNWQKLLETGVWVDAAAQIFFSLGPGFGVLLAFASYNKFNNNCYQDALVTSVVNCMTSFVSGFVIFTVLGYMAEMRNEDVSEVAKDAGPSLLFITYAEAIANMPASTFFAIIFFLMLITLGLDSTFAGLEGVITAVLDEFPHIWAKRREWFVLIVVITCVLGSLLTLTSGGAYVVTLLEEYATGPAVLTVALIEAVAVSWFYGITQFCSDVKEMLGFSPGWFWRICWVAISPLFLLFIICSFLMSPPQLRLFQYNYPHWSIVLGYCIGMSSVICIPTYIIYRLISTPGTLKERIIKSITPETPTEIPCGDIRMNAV

| Compound | IC50 (NMDA receptor [1]) | IC50 (NMDA receptor [2]) | Ki [3] | Ki [4] | Ki [5, 6] | other results |
| --- | --- | --- | --- | --- | --- | --- |
| CNCCC(c1ccccc1)c1ccccc1 [Compound 67] | 11000 nM | 2900 nM | – | – | – | – |
| CN(C)CCCN1c2ccccc2CCc2ccccc21 [Imipramine, reference compound] | – | – | – | – | – | Mean duration of immobility (male C57BL/6 mice; Table VII, positive control, 15 mg/kg i.p. 30 minutes prior to testing, saline control 154.9): 103.6* sec; Duration of Immobility (male C57BL/6 mice; Table VIII (experiment #1), 15 mg/kg i.p. single dose 30 minutes prior to testing, saline control 210.1): 133.9* sec; Mean Change in the Duration of Immobility (Day 2 minus Day 1) (male Sprague-Dawley rats): −23.3* sec; Mean duration of immobility (male NIH-Swiss mice; Table IV, saline control 129.7): 53.4* sec; Mean duration of immobility (male NIH-Swiss mice; Table V, saline control 137.8): 72.5* sec |
| C[C@H](CN)C(c1cccc(F)c1)c1cccc(F)c1 [Compound 34] | 426 nM | 2700 nM | 3000 nM | 602 nM | 2100 nM | – |
| NCCC(Oc1cccc(F)c1)c1ccccc1 (centres unmarked) [Compound 137] | 232 nM | – | – | – | – | – |
| Fc1cccc(C(c2cccc(F)c2)C2CCCNC2)c1 (centres unmarked) [Compound 111] | 645 nM | 167 nM | 124 nM | 30 nM | – | Ki [5]: 600 nM |
| NCCC(c1cccc(F)c1)c1cccc(F)c1 [Compound 20] | 70 nM | 252 nM | 312 nM | 3000 nM | 256 nM | – |
| C[C@H](N)CC(c1cccc(F)c1)c1cccc(F)c1 [Compound 50] | 89 nM | 762 nM | 107 nM | 1800 nM | 45 nM | – |
| C[C@@H](CN)C(c1cccc(F)c1)c1cccc(F)c1 [Compound 33] | 60 nM | 181 nM | 3800 nM | 826 nM | 1200 nM | – |
| NCCC(c1ccccc1)c1ccccc1 [Compound 19] | – | 2100 nM | – | – | – | increase in the power of movements (male NMRI-CERJ mice): 275% |
